Tests used:
IL-2 production = assay: Inhibition of IL-2 production in PHA-activated Jurkat cells (ELISA); assay type: cell-based; conditions: Homo sapiens
Experimental: Jurkat cells were placed in a 96 well plate (0.5 million cells per well in 1% FBS medium) then test compounds of this invention were added at different concentrations. After 10 minutes, the cells were activated with PHA (final concentration 2.5 μg/mL) and incubated for 20 hours at 37° C. under CO2. The final volume was 200 μL. Following incubation, the cells were centrifuged and the supernatants collected and stored at −70° C. prior to assaying for IL-2 production. A commercial ELISA kit (IL-2 Eli-pair, Diaclone Research, Besancon, France) was used to detect production of IL-2, from which dose response curves were obtained. The IC50 value was calculated as the concentration at which 50% of maximum IL-2 production after stimulation was inhibited versus a non-stimulation control.

RBL cells = assay: Inhibition of degranulation in RBL cells; assay type: cell-based; conditions: Rattus norvegicus, anti-DNP IgE / anti-IgE, read-out: concentration at which 50% of degranulation is inhibited
Experimental: Procedure: • The day before the assay was performed, RBL cells, that had been grown to confluence in a 96 well plate, were incubated at 37° C. for at least 2 hours. The medium was replaced in each well with 100 μL of fresh medium containing of anti-DNP IgE.
On the following day, the cells were washed once with PRS (2.6 mM glucose and 0.1% BSA) and 160 μL of PRS was added to each well. The test compound was addded to a well in a 20 μL solution at 10× of the desired concentration and incubated for 20 to 40 minutes at 37° C. 20 μL of 10× mouse anti-IgE (10 μL/mL). Maximum degranulation occurred between 15 to 40 minutes after addition of anti-IgE.

[1] = PHA 2.5 μg/mL, 20 hours, value bins

Compound	IC50 (IL-2 production; [1]) [nM]	other results
Cc1c(F)cccc1C(=O)Nc1ccc(-c2cc(C(F)(F)F)ccc2C(F)(F)F)cc1 [Compound 55, N-(2′,5′-bis-trifluoromethyl-biphenyl-4-yl)-2-methyl-3-fluorobenzamide]	< 100	–
COc1cccc(C(=O)Nc2ccc(-c3cc(C(F)(F)F)ccc3C(F)(F)F)cc2)c1C [Compound 56, N-(2′,5′-bis-trifluoromethyl-biphenyl-4-yl)-2-methyl-3-methoxybenzamide]	< 100	–
COc1ccc(OC)c(-c2ccc(NC(=O)c3snnc3C)cc2)c1 [Compound 58, 4-methyl-[1,2,3]-thiadiazole-5-carboxylic acid (2′,5′-dimethoxy-biphenyl-4-yl)-amide]	< 100	–
COc1ccc(OC)c(-c2ccc(NC(=O)c3ccccc3C)cc2)c1 [Compound 59, N-(2′,5′-dimethoxy-biphenyl-4-yl)-2-methylbenzamide]	< 100	–
Cc1ncccc1C(=O)Nc1ccc(-c2cc(C(F)(F)F)ccc2C(F)(F)F)cc1 [Compound 60, 2-methyl-pyridine-3-carboxylic acid (2′,5′-bis-trifluoromethyl-biphenyl-4-yl)-amide]	100 to 500	–
O=C(Nc1ccc(-c2cc(C(F)(F)F)ccc2C(F)(F)F)cc1)c1cccc2c1OCCO2 [Compound 61, 2,3-dihydro-benzo[1,4]dioxine-5-carboxylic acid (2′,5′-bis-trifluoromethyl-biphenyl-4-yl)-amide]	–	IC50 (IL-2 production; PHA, bin 500 nM-1 μM): 500 to 1000 nM
Cn1cncc1C(=O)Nc1ccc(-c2cc(C(F)(F)F)ccc2C(F)(F)F)cc1 [Compound 62, 1-methyl-1H-imidazole-5-carboxylic acid (2′,5′-bis-trifluoromethyl-biphenyl-4-yl)-amide]	100 to 500	–
COc1ccc(OC)c(-c2ccc(NC(=O)c3ccncc3C)cc2)c1 [Compound 63, 3-methyl-pyridine-4-carboxylic acid (2′,5′-dimethoxy-biphenyl-4-yl)-amide]	< 100	–
Cc1cnccc1C(=O)Nc1ccc(-c2cc(C(F)(F)F)ccc2C(F)(F)F)cc1 [Compound 64, 3-methyl-pyridine-4-carboxylic acid (2′,5′-bis-trifluoromethyl-biphenyl-4-yl)-amide]	< 100	–
COc1ccc(Cl)cc1-c1ccc(NC(=O)c2ccncc2C)cc1 [Compound 65, 3-methyl-pyridine-4-carboxylic acid (2′-methoxy-5′-chlorobiphenyl-4-yl)-amide]	< 100	–
COc1ccc(Cl)cc1-c1ccc(NC(=O)c2ccncc2F)cc1 [Compound 67, 3-fluoro-pyridine-4-carboxylic acid (2′-methoxy-5′-chlorobiphenyl-4-yl)-amide]	< 100	–
O=C(Nc1ccc(-c2cc(C(F)(F)F)ccc2C(F)(F)F)cc1)c1ccncc1F [Compound 68, 3-fluoro-pyridine-4-carboxylic acid (2′,5′-bis-trifluoromethylbiphenyl-4-yl)-amide]	< 100	–
COc1ccc(C)cc1-c1ccc(NC(=O)c2ccncc2C)cc1 [Compound 69, 3-methyl-pyridine-4-carboxylic acid (2′-methoxy-5′-methylbiphenyl-4-yl)-amide]	< 100	–
Cc1ccc(C)c(-c2ccc(NC(=O)c3ccncc3C)cc2)c1 [Compound 70, 3-methyl-pyridine-4-carboxylic acid (2′,5′-dimethylbiphenyl-4-yl)-amide]	100 to 500	–
COc1ccc(C(C)=O)cc1-c1ccc(NC(=O)c2snnc2C)cc1 [Compound 71, 4-methyl-[1,2,3]-thiadiazole-5-carboxylic acid (2′-methoxy-5′-acetylbiphenyl-4-yl)-amide]	100 to 500	–
O=C(Nc1ccc(-c2cc(Cl)ccc2OC(F)F)cc1)c1ccncc1F [Compound 72, 3-fluoro-pyridine-4-carboxylic acid (2′-difluoromethoxy-5′-chlorobiphenyl-4-yl)-amide]	< 100	–
Cc1nnsc1C(=O)Nc1ccc(-c2cc(OC(F)(F)F)ccc2N(C)C)cc1 [Compound 73, 4-methyl-[1,2,3]-thiadiazole-5-carboxylic acid {2′-(N,N-dimethylamino)-5′-trifluoromethoxybiphenyl-4-yl}-amide]	< 100	–
Cc1cnccc1C(=O)Nc1ccc(-c2cc(C(F)(F)F)ccc2Cl)cc1 [Compound 74, 3-methyl-pyridine-4-carboxylic acid (2′-chloro-5′-trifluoromethylbiphenyl-4-yl)-amide]	< 100	–

Compound	IC50 (IL-2 production; [1]) [nM]	other results
CCc1ccccc1-c1ccc(NC(=O)c2ccncc2C)cc1 [Compound 76, 3-methyl-pyridine-4-carboxylic acid (2′-ethyl-biphenyl-4-yl)-amide]	< 100	–
Cc1cnccc1C(=O)Nc1ccc(-c2ccccc2C(C)C)cc1 [Compound 77, 3-methyl-pyridine-4-carboxylic acid (2′-isopropyl-biphenyl-4-yl)-amide]	100 to 500	–
CCc1ccc(CC)c(-c2ccc(NC(=O)c3ccncc3C)cc2)c1 [Compound 79, 3-methyl-pyridine-4-carboxylic acid (2′,5′-diethylbiphenyl-4-yl)-amide]	< 100	–
COc1ccc(N(C)C)c(-c2ccc(NC(=O)c3ccncc3C)cc2)c1 [Compound 80, 3-methyl-pyridine-4-carboxylic acid {2′-(N,N-dimethylamino)-5′-methoxybiphenyl-4-yl}-amide]	100 to 500	–
CCOc1ccc(Cl)cc1-c1ccc(NC(=O)c2ccncc2C)cc1 [Compound 82, 3-methyl-pyridine-4-carboxylic acid (2′-ethoxy-5′-chlorobiphenyl-4-yl)-amide]	< 100	–
COc1ccc(Cl)cc1-c1ccc(NC(=O)c2cc(F)c(F)cc2F)cc1 [Compound 84, N-(2′-methoxy-5′-chloro-biphenyl-4-yl)-2,4,5-trifluorobenzamide]	< 100	–
O=C(Nc1ccc(-c2cc(C(F)(F)F)ccc2C(F)(F)F)cc1)c1c(F)cccc1F [Compound 85, N-(2′,5′-bis-trifluoromethylbiphenyl-4-yl)-2,6-difluorobenzamide]	< 100	–
O=C(Nc1ccc(-c2cc(C(F)(F)F)ccc2Cl)cc1)c1c(F)cccc1F [Compound 86, N-(2′-chloro-5′-trifluoromethylbiphenyl-4-yl)-2,6-difluorobenzamide]	< 100	–
Cc1ccc(C)c(-c2ccc(NC(=O)c3c(F)cccc3F)cc2)c1 [Compound 87, N-(2′,5′-dimethylbiphenyl-4-yl)-2,6-difluorobenzamide]	< 100	–
O=C(Nc1ccc(-c2cc(Cl)ccc2Cl)cc1)c1c(F)cccc1F [Compound 88, N-(2′,5′-dichlorobiphenyl-4-yl)-2,6-difluorobenzamide]	< 100	–
O=C(Nc1ccc(-c2c(C(F)(F)F)cc3ccccn23)cc1)c1cc(F)ccc1F [Compound 90, 2,5-Difluoro-N-[4-(2-trifluoromethyl-indolizin-3-yl)-phenyl]-benzamide]	100 to 500	–
Cc1cc2ccccn2c1-c1ccc(NC(=O)c2snnc2C)cc1 [Compound 91, 4-methyl-N-[4-(2-methyl-indolizin-3-yl)-phenyl]-[1,2,3]thiadiazole 5-carboxylic acid amide]	100 to 500	–
COc1ccc(OC)c(-c2ccc(NC(=O)c3c(F)cccc3F)cc2)c1 [Compound 125, N-(2′,5′-dimethoxy-biphenyl-4-yl)-2,6-difluoro-benzamide]	< 100	–
Cc1ccc(C(F)(F)F)c(-c2ccc(NC(=O)c3c(F)cccc3F)cc2)c1 [Compound 126, N-(2′-trifluoromethyl-5′-methyl-biphenyl-4-yl)-2,6-difluoro-benzamide]	< 100	–
Fc1cccc(F)c1CNc1ccc(-c2cc(C(F)(F)F)ccc2C(F)(F)F)cc1 [Compound 127, N-(2′,5′-bis-trifluoromethyl-biphenyl-4-yl)-2,6-difluoro-benzyl amine]	< 100	–
COc1ccc(Cl)cc1-c1ccc(NCc2c(F)cccc2F)cc1 [Compound 129, N-(2′-methoxy-5′-chloro-biphenyl-4-yl)-2,6-difluoro-benzyl amine]	< 100	–
CCN(CC)C(=O)Nc1ccc(-c2cc(C(F)(F)F)ccc2C(F)(F)F)cc1 [Compound 131, N′,N′-diethyl-N-(2′,5′-bis-trifluoromethylbiphenyl-4-yl) urea]	< 100	IC50 (IL-2 production; PHA, bin 500 nM-1 μM): 500 to 1000 nM
COc1ccc(CCCOC(Cn2ccnc2)c2ccc(OC)cc2)cc1 (stereo not shown) [SKF96365, reference compound]	–	IC50 (RBL cells): > 20000 nM
